Test results: patent EP3409787A1, “TWO SNPS (SINGLE NUCLEOTIDE POLYMORPHISMS) IN THE SEQUENCE OF THE BETA, BETA-CAROTENE 15,15 DIOXYGENASE GENE AND THEIR USE” (DSM IP Assets B.V., priority 2017, dated 2018)

Experiment: Supplementation study: Total Body Stores of vitamin A (TBS) by isotope dilution with [13C10] retinyl acetate
Assay type: in vivo, human subjects
Conditions: 7 mg beta-carotene daily, 54 days, humans
Excerpt: The person skilled in art knows how to determine the Total Body Stores (TBS) of vitamin A, e.g. by determining the [^13C10] retinyl acetate dose after a sufficient period (circa 3 days) of isotope dilution with endogenous pools.
The study underlying the present invention analyzed inter alia the Total Body Store of vitamin A (TBS) using an isotope dilution method and [^13C10] retinol concentrations, and determined the effect of the rs7501331 or rs6564851 SNPs on BCO1 enzyme activity. To enable the analysis of SNPs on TBS, stepwise multiple regression was performed using the Akaike Information Criterion (AIC) to evaluate the covariates dietary intake of retinol, provitamin A carotenoids and retinol equivalents, age, BMI and body fat. The most significant covariant used for the selective model to analyze the SNP and TBS interaction was dietary retinol equivalent, with an AIC of 276.5. Thus, the final model tested the effects of the rs7501331 or rs6564851 SNPs on TBS at both baseline and after 54 days of supplementation accounting for dietary retinol equivalent as the only co-variant in the analysis.
The study was a randomized, single blind supplementation design combined with retrospective genotyping to test three beta-carotene formulations (7mg β-carotene/day) for a period of 8 weeks. […] On day 1 and 57 of each supplementation period, a fasting blood sample was taken before the oral administration of 2 mg of [^13C10] β-carotene and 0.4 mg of [^13C10] retinyl acetate as part of a test breakfast meal. Further blood samples were taken at 2, 4, 6, 8, 10 and 12 hours post-dose. For the first formulation (BetaTab 20%S) single fasting blood samples were also taken at day 2, 3, 4, 8, 10, 22, 36 and day 57 of the 8 week supplementation period followed by fasting blood samples at day 58, 59, 60, 64, 66, 78, 92 and 113 during the wash-out period. […] However, overall body retinol homeostasis was determined using supplement 1 (BetaTab 20% S).

## CC1=C(/C=C/C(C)=C/C=C/C(C)=C/C=C/C=C(C)/C=C/C=C(C)/C=C/C2=C(C)CCCC2(C)C)C(C)(C)CCC1 [beta-carotene]
  effect of rs7501331 (A379V) SNP / dominant T variant on TBS values after supplementation: can overcome
  effect of the rs6564851 SNPs on TBS after supplementation: does not disappear
Listed as ß-carotene
  effect of rs7501331 (A379V) SNP / dominant T variant on TBS values after supplementation: disappeared
